Laboratory results: patent US9993494B2, “Compositions and methods for treating fibrotic disease” (eFFECTOR Therapeutics, Inc., priority 2014, dated 2018)

Test system: normal human lung fibroblasts
Test: Ribosomal profiling: translational efficiency in TGFβ-treated fibroblasts
Assay type: cell-based
How it was run: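 Cells lysed on ice after a cold PBS wash containing cycloheximide. Ribosome-protected fragments and total mRNA were prepared with the ARTseq kit and sequenced by RNA-Seq. Reads were trimmed, mapped to the human genome and counted uniquely over coding regions per gene, with low-count genes excluded before differential translational-efficiency analysis.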

## CC(C)n1nc(-c2cc3cc(O)ccc3[nH]2)c2c(N)ncnc21 [PP242]
ENSG00000164292, TGFβ-treated fibroblasts
  renormalizing the translational profile of RHOBTB3: − (− = <0.9)
ENSG00000164588, TGFβ-treated fibroblasts
  renormalizing the translational profile of HCN1: − (− = <0.9)
ENSG00000165502, TGFβ-treated fibroblasts
  renormalizing the translational profile of RPL36AL: − (− = <0.9)
ENSG00000166441, TGFβ-treated fibroblasts
  renormalizing the translational profile of RPL27A: − (− = <0.9)
ENSG00000166503, TGFβ-treated fibroblasts
  renormalizing the translational profile of RP11-382A20.3.1: − (− = <0.9)
ENSG00000166839, TGFβ-treated fibroblasts
  renormalizing the translational profile of ANKDD1A: + (+ = 0.9 to 1.5)
ENSG00000167526, TGFβ-treated fibroblasts
  renormalizing the translational profile of RPL13: − (− = <0.9)
ENSG00000167658, TGFβ-treated fibroblasts
  renormalizing the translational profile of EEF2: + (+ = 0.9 to 1.5)
ENSG00000169239, TGFβ-treated fibroblasts
  renormalizing the translational profile of CA5B: + (+ = 0.9 to 1.5)
ENSG00000170681, TGFβ-treated fibroblasts
  renormalizing the translational profile of MURC: − (− = <0.9)
ENSG00000170801, TGFβ-treated fibroblasts
  renormalizing the translational profile of HTRA3: − (− = <0.9)
ENSG00000171408, TGFβ-treated fibroblasts
  renormalizing the translational profile of PDE7B: − (− = <0.9)
ENSG00000171517, TGFβ-treated fibroblasts
  renormalizing the translational profile of LPAR3: − (− = <0.9)
ENSG00000171793, TGFβ-treated fibroblasts
  renormalizing the translational profile of CTPS: − (− = <0.9)
ENSG00000172053, TGFβ-treated fibroblasts
  renormalizing the translational profile of QARS: − (− = <0.9)
ENSG00000172809, TGFβ-treated fibroblasts
  renormalizing the translational profile of RPL38: − (− = <0.9)
ENSG00000174100, TGFβ-treated fibroblasts
  renormalizing the translational profile of MRPL45: + (+ = 0.9 to 1.5)
ENSG00000174444, TGFβ-treated fibroblasts
  renormalizing the translational profile of RPL4: − (− = <0.9)
ENSG00000174748, TGFβ-treated fibroblasts
  renormalizing the translational profile of RPL15: − (− = <0.9)
ENSG00000175084, TGFβ-treated fibroblasts
  renormalizing the translational profile of DES: − (− = <0.9)
ENSG00000175390, TGFβ-treated fibroblasts
  renormalizing the translational profile of EIF3F: − (− = <0.9)
ENSG00000175505, TGFβ-treated fibroblasts
  renormalizing the translational profile of CLCF1: − (− = <0.9)
ENSG00000176020, TGFβ-treated fibroblasts
  renormalizing the translational profile of AMIGO3: − (− = <0.9)
ENSG00000176438, TGFβ-treated fibroblasts
  renormalizing the translational profile of C14orf49: − (− = <0.9)
ENSG00000177600, TGFβ-treated fibroblasts
  renormalizing the translational profile of RPLP2: − (− = <0.9)
ENSG00000178035, TGFβ-treated fibroblasts
  renormalizing the translational profile of IMPDH2: − (− = <0.9)
ENSG00000178401, TGFβ-treated fibroblasts
  renormalizing the translational profile of DNAJC22: + (+ = 0.9 to 1.5)
ENSG00000182899, TGFβ-treated fibroblasts
  renormalizing the translational profile of RPL35A: + (+ = 0.9 to 1.5)
ENSG00000182909, TGFβ-treated fibroblasts
  renormalizing the translational profile of LENG9: − (− = <0.9)
ENSG00000183172, TGFβ-treated fibroblasts
  renormalizing the translational profile of C22orf32: − (− = <0.9)
ENSG00000183971, TGFβ-treated fibroblasts
  renormalizing the translational profile of NPW: − (− = <0.9)
ENSG00000184588, TGFβ-treated fibroblasts
  renormalizing the translational profile of PDE4B: − (− = <0.9)
ENSG00000185008, TGFβ-treated fibroblasts
  renormalizing the translational profile of ROBO2: − (− = <0.9)
ENSG00000185920, TGFβ-treated fibroblasts
  renormalizing the translational profile of PTCH1: − (− = <0.9)
ENSG00000186184, TGFβ-treated fibroblasts
  renormalizing the translational profile of POLR1D: − (− = <0.9)
ENSG00000187240, TGFβ-treated fibroblasts
  renormalizing the translational profile of DYNC2H1: − (− = <0.9)
ENSG00000188846, TGFβ-treated fibroblasts
  renormalizing the translational profile of RPL14: − (− = <0.9)
ENSG00000188906, TGFβ-treated fibroblasts
  renormalizing the translational profile of LRRK2: − (− = <0.9)
ENSG00000196531, TGFβ-treated fibroblasts
  renormalizing the translational profile of NACA: − (− = <0.9)
ENSG00000196878, TGFβ-treated fibroblasts
  renormalizing the translational profile of LAMB3: − (− = <0.9)
ENSG00000197111, TGFβ-treated fibroblasts
  renormalizing the translational profile of PCBP2: − (− = <0.9)
ENSG00000197442, TGFβ-treated fibroblasts
  renormalizing the translational profile of MAP3K5: − (− = <0.9)
ENSG00000197756, TGFβ-treated fibroblasts
  renormalizing the translational profile of RPL37A: − (− = <0.9)
ENSG00000197958, TGFβ-treated fibroblasts
  renormalizing the translational profile of RPL12: − (− = <0.9)
ENSG00000198121, TGFβ-treated fibroblasts
  renormalizing the translational profile of LPAR1: − (− = <0.9)
ENSG00000198242, TGFβ-treated fibroblasts
  renormalizing the translational profile of RPL23A: − (− = <0.9)
ENSG00000198523, TGFβ-treated fibroblasts
  renormalizing the translational profile of PLN: − (− = <0.9)
ENSG00000198755, TGFβ-treated fibroblasts
  renormalizing the translational profile of RPL10A: − (− = <0.9)
ENSG00000198848, TGFβ-treated fibroblasts
  renormalizing the translational profile of CES1: − (− = <0.9)
ENSG00000198918, TGFβ-treated fibroblasts
  renormalizing the translational profile of RPL39: − (− = <0.9)
ENSG00000204397, TGFβ-treated fibroblasts
  renormalizing the translational profile of CARD16: − (− = <0.9)
ENSG00000204628, TGFβ-treated fibroblasts
  renormalizing the translational profile of GNB2L1: + (+ = 0.9 to 1.5)
ENSG00000215472, TGFβ-treated fibroblasts
  renormalizing the translational profile of RPL17: − (− = <0.9)
ENSG00000229117, TGFβ-treated fibroblasts
  renormalizing the translational profile of RPL41: − (− = <0.9)
ENSG00000241685, TGFβ-treated fibroblasts
  renormalizing the translational profile of ARPC1A: − (− = <0.9)
ENSG00000250479, TGFβ-treated fibroblasts
  renormalizing the translational profile of CHCHD10: +++ (+++ = >2.0)
ENSG00000254772, TGFβ-treated fibroblasts
  renormalizing the translational profile of EEF1G: − (− = <0.9)
TGFβ and PP242, of 141 genes, FIG. 8
  number of the 141 eIF2 pathway genes that moved toward normal: 104
TGFβ and PP242, out of 12 genes, FIG. 7
  number of the 12 eIF2 signaling pathway genes that moved toward the untransformed, normal state: 11
Gene RPS2 (ENSG00000140988), TGFβ-treated fibroblasts
  effect in renormalizing the translational profile of the gene: − (− = <0.9)
Gene RPS3 (ENSG00000149273), TGFβ-treated fibroblasts
  effect in renormalizing the translational profile of the gene: − (− = <0.9)
Gene RPS3A (ENSG00000145425), TGFβ-treated fibroblasts
  effect in renormalizing the translational profile of the gene: − (− = <0.9)
Gene RPS4X (ENSG00000198034), TGFβ-treated fibroblasts
  effect in renormalizing the translational profile of the gene: − (− = <0.9)
Gene RPS4Y1 (ENSG00000129824), TGFβ-treated fibroblasts
  effect in renormalizing the translational profile of the gene: − (− = <0.9)
Gene RPS5 (ENSG00000083845), TGFβ-treated fibroblasts
  effect in renormalizing the translational profile of the gene: − (− = <0.9)
Gene RPS6 (ENSG00000137154), TGFβ-treated fibroblasts
  effect in renormalizing the translational profile of the gene: − (− = <0.9)
